Entries after “also recorded” stand apart in the source; their conditions may differ.
Assays:
[1] = test system: DBA/1 mice; experiment: Therapeutic CIA study AA#79 (female mice), disease score; format: in vivo, mouse; details: female DBA/1 mice; 20 mg/kg IP 3× weekly, 8 doses from Day 29; vs control groups (FIG. 7); 20 mg/kg
Protocol: DBA/1 mice (10 per group) aged 7-9 weeks were used for the CIA model. Mice from several vendors (Jackson Laboratories, Harlan Laboratories, and Taconic Farms) were tested and it was determined that Taconic mice are most appropriate for the CIA studies. Taconic mice develop more consistent and severe disease symptoms and show continued disease progression, while mice from the other vendors often show stable, less severe disease, even in the absence of treatment. female (F) mice in AA#79 and male (M) mice in AA#80, were tested to determine which gender to use in future experiments.
On the day before the study is initiated, the hair on the right flank of each mouse was removed using an electric clipper. A metal identification tag was placed on the right ear of each mouse. On Day 0, mice were immunized with 100 μL of chicken collagen type II/Complete Freund's Adjuvant (CII/CFA) emulsion in the right flank. On Day 20, the hair on the left flank of each mouse was removed using an electric clipper, and on Day 21, mice were immunized with 100 μL of chicken collagen type II/Incomplete Freund's Adjuvant (CII/IFA) emulsion in the left flank. Pre-filled syringes of CII/CFA and CII/IFA emulsion purchased from Hooke Laboratories were used to ensure consistent dosing with and potency of the immunogen.
Early arthritis symptoms, such as erythema and mild swelling, usually appear on Day 21, and on Day 28, more severe symptoms such as swelling in many digits and inflammation extending to the tarsal joint are typically present. Each limb is evaluated for severity of arthritis symptoms three times a week using a widely accepted arthritis severity score system, shown in Table 2. The scores from each of the 4 limbs are summed to yield the disease score of each mouse. […]
Treatment was initiated when the average disease score for the study animals was greater than four. This corresponded to Day 29 in AA#79 and Day 24 in […]. By waiting until animals are symptomatic, it was ensured that the model is performed in a therapeutic rather than prophylactic mode.
B7-H4-Ig, RPA110010, and murine B7-H4-Ig proteins were administered by intraperitoneal (IP) injection 3 times a week for a total of 8 doses. RPA110010 is an extracellular domain variant of B7-H4-Ig, SEQ ID NO:126. Control murine and human IgG proteins were given once a week for a total of 3 doses. […] All proteins were diluted to the desired concentration (500 μg in 500 μL, or 1 mg/mL) with sterile PBS immediately before injection. Vehicle control mice receive Amplimmune formulation buffer diluted 1:10 in PBS, with an injection volume of 500 μL.

[2] = test system: serum levels of 58 analytes; experiment: Serum biomarker analysis, quantitative immunoassay multi-analyte profiling (Rules-Based Medicine RodentMAP v2.9), AA#80; format: in vivo, mouse
Protocol: In AA#80, serum samples were collected on Day 27, Day 34, Day 41 and Day 55 via the submandibular vein. Approximately 200 μL of blood per mouse was collected in Microtainer® serum separator tubes. Serum was removed following centrifugation and stored at <−65° C. until analysis.
Selected serum samples were sent to Rules-Based Medicine (Austin, Tex.) for quantitative immunoassay multi-analyte profiling of serum samples, with the goal of identifying biomarkers that could be used to monitor disease progression and response to B7-H4-Ig treatment. Day 27, Day 34, and Day 41 sera from the three representative mice in the B7-H4-Ig group (tag #3332, 3334, and 3338) and three representative mice in the Synagis® group (tag #3324, 3329, and 3330) were analyzed for levels of 58 analytes using the RodentMAP v2.9 Testing Service.
Data from the Rules-Based Medicine analysis was analyzed using Microsoft Excel and GraphPad Prism software. T-tests were performed to compare the levels of each analyte in the B7-H4-Ig versus Synagis® treated samples. No correction was made for multiple comparisons. Additionally, correlation coefficients were calculated for each analyte versus disease score.

## B7-H4-Ig: B7-H4 extracellular domain fused to Ig Fc; bare label is the human protein in Example 3, murine protein in Examples 1, 2, 5, 7-11
[1]
  disease scores, AA#79: lower disease scores than mice in the control groups; also recorded: prolonged period of stable disease scores
[2]; AA#80 serum (FIG. 11)
  serum IL-6 levels, difference between Synagis and B7-H4-Ig groups: did not reach statistical significance
[2]; B7-H4-Ig vs Synagis treated groups
  serum SAP levels: not significantly different
[2]; Day 41, vs Synagis treated mice (FIG. 15)
  serum MIP-2 levels: significantly lower
[2]; Day 41 and overall, vs Synagis treated mice (FIG. 10)
  serum ET-1 levels: significantly lower
[2]; Day 41 and overall, vs Synagis treated mice (FIG. 12)
  serum MCP-1 levels: significantly lower
[2]; Day 41 and overall, vs Synagis treated mice (FIG. 14)
  serum MCP-3 levels: significantly lower
[2]; all samples (Day 27, 34, 41) (FIG. 16)
  serum samples with TNF-α levels above the limit of detection: none

Reference: patent US9011853B2, “B7-H4 fusion proteins and methods of use thereof” (Amplimmune, Inc., priority 2009, dated 2015)
